For four molecules, Drug uptake results are on record in ChEMBL document CHEMBL1667828, “Synthesis and evaluation of new iRGD peptide analogs for tumor optical imaging” (Bioorg Med Chem Lett, 2011).

Holding throughout (format): ADME, organism-based, Neoplasm
Series [1] is described as follows: Drug level in tumor of human MDA-MB-435 cell-xenograft athymic nude mouse model at 10 uM, iv after 4 hrs by optical imaging analysis. Conditions: in vivo; call rule not given here.
The nature of series [2]: Drug level in tumor of human MDA-MB-435 cell-xenograft athymic nude mouse model at 10 uM, iv after 10 mins by optical imaging analysis. To be noted: in vivo.
Series [3] in a line: Drug level in tumor of human MDA-MB-435 cell-xenograft athymic nude mouse model at 10 uM, iv by PET analysis. To be noted: athymic nude mouse (human MDA-MB-435 xenograft), in vivo.

Where a SMILES comes first, the peptide text is derived from it. Bridges are numbered along the chain shown (N, C = ends). The star is where a group is joined. DOTA = O=C(O)CN1CCN(CC(=O)O)CCN(CC(=O)*)CCN(CC(=O)O)CC1

For `CC(=O)N[C@H](CSC1CC(=O)N(CCNC(=O)CCCCC[N+]2=C(/C=C/C3=C(Oc4ccc(S(=O)(=O)[O-])cc4)C(=C/C=C4/N(CCCCS(=O)(=O)[O-])c5ccc(S(=O)(=O)[O-])cc5C4(C)C)/CCC3)C(C)(C)c3cc(S(=O)(=O)[O-])ccc32)C1=O)C(=O)N[C@H]1CSSC[C@@H](C(N)=O)NC(=O)[C@H](CC(=O)O)NC(=O)[C@@H]2CCCN2C(=O)CNC(=O)[C@H](CCCCN)NC(=O)[C@H](CC(=O)O)NC(=O)CNC(=O)[C@H](CCCNC(=N)N)NC1=O.[Na+].[Na+].[Na+]` (stereo not given in full), the Drug uptake entry in series [1], in series [2] and in series [3] was “Active” throughout.
Take `CC1(C)C(/C=C/C2=C(Oc3ccc(S(=O)(=O)[O-])cc3)C(=C/C=C3/N(CCCCS(=O)(=O)[O-])c4ccc(S(=O)(=O)[O-])cc4C3(C)C)/CCC2)=[N+](CCCCCC(=O)NCCN2C(=O)CC(SC[C@@H](NC(=O)CN3CCN(CC(=O)O)CCN(CC(=O)O)CCN(CC(=O)O)CC3)C(=O)N[C@H]3CSSC[C@@H](C(N)=O)NC(=O)[C@H](CC(=O)O)NC(=O)[C@@H]4CCCN4C(=O)CNC(=O)[C@H](CCCCN)NC(=O)[C@H](CC(=O)O)NC(=O)CNC(=O)[C@H](CCCNC(=N)N)NC3=O)C2=O)c2ccc(S(=O)(=O)[O-])cc21.[Na+].[Na+].[Na+]` (stereo not given in full): the Drug uptake entry in series [1], in series [2] and in series [3] was “Active” each time.
For the molecule `CC(=O)N[C@@H](CS)C(=O)N[C@H]1CSSC[C@@H](C(N)=O)NC(=O)[C@H](CC(=O)O)NC(=O)[C@@H]2CCCN2C(=O)CNC(=O)[C@H](CCCCN)NC(=O)[C@H](CC(=O)O)NC(=O)CNC(=O)[C@H](CCCNC(=N)N)NC1=O` (Ac-CCRGDKGPDC-NH2; disulfide 2-10), the Drug uptake entry in series [1] and in series [3] was “Active” each time.
Regarding `N=C(N)NCCC[C@@H]1NC(=O)[C@@H](NC(=O)[C@H](CS)NC(=O)CN2CCN(CC(=O)O)CCN(CC(=O)O)CCN(CC(=O)O)CC2)CSSC[C@@H](C(N)=O)NC(=O)[C@H](CC(=O)O)NC(=O)[C@@H]2CCCN2C(=O)CNC(=O)[C@H](CCCCN)NC(=O)[C@H](CC(=O)O)NC(=O)CNC1=O` ({DOTA}-CCRGDKGPDC-NH2; disulfide 2-10), the Drug uptake result in series [1] and in series [3] was “Active” in each case.
